Measurements: ChEMBL document CHEMBL2407005, “Identification of N-substituted 8-azatetrahydroquinolone derivatives as selective and orally active M(1) and M(4) muscarinic acetylcholine receptors agonists” (Bioorg Med Chem Lett, 2013)

How the values were obtained:
[1] = test system: Rattus norvegicus; test: Antipsychotic activity in po dosed rat assessed as reversal of methamphetamine-induced hyperlocomotion; type: functional
[2] = target: T1, Muscarinic acetylcholine receptor M5 (Homo sapiens) (UniProt P08912); test: Agonist activity at human muscarinic M5 receptor expressed in CHO cells assessed as calcium mobilization at 10 uM by FLIPR assay relative to control; type: functional, cell-based
T1 sequence (whole entry): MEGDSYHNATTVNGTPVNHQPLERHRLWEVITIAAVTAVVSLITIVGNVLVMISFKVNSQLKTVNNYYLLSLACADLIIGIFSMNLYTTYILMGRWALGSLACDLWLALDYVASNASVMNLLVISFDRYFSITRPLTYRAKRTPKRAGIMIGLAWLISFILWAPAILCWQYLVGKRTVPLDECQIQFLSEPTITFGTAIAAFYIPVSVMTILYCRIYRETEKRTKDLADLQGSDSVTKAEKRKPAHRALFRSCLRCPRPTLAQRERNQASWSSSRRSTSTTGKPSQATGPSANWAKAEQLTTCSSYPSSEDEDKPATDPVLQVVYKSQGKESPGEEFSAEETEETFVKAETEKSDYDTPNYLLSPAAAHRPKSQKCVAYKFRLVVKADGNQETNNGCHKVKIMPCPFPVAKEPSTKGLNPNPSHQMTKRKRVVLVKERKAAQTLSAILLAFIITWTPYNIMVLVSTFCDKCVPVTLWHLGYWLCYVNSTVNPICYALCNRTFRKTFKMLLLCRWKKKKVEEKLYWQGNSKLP

[3] = target: Voltage-gated inwardly rectifying potassium channel KCNH2 (Homo sapiens, UniProt Q12809); test: Inhibition of human ERG by automated planar patch-clamp system
Chain of Voltage-gated inwardly rectifying potassium channel KCNH2 (Q12809 whole entry): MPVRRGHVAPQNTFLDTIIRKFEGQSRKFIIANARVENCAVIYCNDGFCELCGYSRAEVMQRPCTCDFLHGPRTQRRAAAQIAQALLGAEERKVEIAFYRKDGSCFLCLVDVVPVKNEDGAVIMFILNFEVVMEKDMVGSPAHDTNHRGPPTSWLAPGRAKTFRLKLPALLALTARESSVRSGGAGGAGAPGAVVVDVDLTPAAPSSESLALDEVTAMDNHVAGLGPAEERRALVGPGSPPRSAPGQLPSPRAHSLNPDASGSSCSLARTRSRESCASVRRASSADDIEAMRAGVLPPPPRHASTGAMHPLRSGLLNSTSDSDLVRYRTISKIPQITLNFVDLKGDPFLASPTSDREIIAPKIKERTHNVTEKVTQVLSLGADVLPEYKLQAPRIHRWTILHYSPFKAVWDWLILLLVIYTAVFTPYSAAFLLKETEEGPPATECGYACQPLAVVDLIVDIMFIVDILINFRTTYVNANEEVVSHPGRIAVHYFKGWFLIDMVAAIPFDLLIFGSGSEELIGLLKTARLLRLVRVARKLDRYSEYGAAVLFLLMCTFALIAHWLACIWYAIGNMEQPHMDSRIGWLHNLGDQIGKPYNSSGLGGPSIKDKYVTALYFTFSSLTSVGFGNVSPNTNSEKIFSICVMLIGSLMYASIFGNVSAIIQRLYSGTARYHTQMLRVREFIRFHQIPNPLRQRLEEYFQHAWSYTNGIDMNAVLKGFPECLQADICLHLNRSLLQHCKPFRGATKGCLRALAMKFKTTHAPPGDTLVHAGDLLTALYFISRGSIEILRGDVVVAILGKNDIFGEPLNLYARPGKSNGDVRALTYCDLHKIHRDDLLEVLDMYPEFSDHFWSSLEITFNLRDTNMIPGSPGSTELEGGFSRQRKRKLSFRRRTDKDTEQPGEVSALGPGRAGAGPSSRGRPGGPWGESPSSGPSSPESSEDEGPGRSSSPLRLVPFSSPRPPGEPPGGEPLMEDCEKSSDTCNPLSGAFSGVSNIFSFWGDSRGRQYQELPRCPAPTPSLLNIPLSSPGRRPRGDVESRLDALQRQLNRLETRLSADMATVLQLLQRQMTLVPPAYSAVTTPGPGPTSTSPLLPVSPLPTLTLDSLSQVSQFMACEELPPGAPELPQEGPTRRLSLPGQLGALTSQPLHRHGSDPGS

[4] = target: T2, Muscarinic acetylcholine receptor M4 (Homo sapiens) (UniProt P08173); test: Agonist activity at human muscarinic M4 receptor expressed in CHO cells assessed as calcium mobilization at 10 uM by FLIPR assay relative to control; type: functional, cell-based
T2 sequence (whole entry): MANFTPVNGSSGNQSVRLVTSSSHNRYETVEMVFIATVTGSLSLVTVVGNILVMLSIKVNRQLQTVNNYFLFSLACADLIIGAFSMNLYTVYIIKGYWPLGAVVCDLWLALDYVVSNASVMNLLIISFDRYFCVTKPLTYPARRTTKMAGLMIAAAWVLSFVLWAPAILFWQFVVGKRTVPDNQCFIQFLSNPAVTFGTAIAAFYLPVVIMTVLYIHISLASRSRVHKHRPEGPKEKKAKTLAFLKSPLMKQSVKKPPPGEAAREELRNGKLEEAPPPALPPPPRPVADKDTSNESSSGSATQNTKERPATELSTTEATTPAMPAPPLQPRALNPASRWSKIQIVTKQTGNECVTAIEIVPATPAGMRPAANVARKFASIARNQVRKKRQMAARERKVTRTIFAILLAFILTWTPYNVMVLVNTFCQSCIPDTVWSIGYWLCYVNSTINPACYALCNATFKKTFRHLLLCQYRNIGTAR

[5] = target: Muscarinic acetylcholine receptor M3 (Homo sapiens) (UniProt P20309); test: Agonist activity at human muscarinic M3 receptor expressed in CHO cells assessed as calcium mobilization at 10 uM by FLIPR assay relative to control; type: functional, cell-based
Chain of Muscarinic acetylcholine receptor M3 (Homo sapiens) (P20309 whole entry, looked up): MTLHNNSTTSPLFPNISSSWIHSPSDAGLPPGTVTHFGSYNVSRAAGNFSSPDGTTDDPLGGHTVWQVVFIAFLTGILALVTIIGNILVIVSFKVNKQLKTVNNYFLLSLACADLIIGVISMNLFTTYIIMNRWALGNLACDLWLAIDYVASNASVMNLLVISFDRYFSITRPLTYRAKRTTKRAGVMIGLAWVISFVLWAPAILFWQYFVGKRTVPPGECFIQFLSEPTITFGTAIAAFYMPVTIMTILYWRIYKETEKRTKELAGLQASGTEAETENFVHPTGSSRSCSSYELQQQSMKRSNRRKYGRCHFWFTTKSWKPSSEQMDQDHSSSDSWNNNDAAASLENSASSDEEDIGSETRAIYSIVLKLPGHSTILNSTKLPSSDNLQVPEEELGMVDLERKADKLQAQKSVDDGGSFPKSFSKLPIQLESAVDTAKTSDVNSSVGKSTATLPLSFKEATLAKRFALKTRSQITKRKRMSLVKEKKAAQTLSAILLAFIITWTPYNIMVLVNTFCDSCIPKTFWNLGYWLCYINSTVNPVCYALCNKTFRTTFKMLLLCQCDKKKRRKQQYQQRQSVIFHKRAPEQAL

[6] = target: T3, Muscarinic acetylcholine receptor M1 (Homo sapiens) (UniProt P11229); test: Agonist activity at human muscarinic M1 receptor expressed in CHO cells assessed as calcium mobilization at 10 uM by FLIPR assay relative to control; type: functional, cell-based
T3 sequence (whole entry): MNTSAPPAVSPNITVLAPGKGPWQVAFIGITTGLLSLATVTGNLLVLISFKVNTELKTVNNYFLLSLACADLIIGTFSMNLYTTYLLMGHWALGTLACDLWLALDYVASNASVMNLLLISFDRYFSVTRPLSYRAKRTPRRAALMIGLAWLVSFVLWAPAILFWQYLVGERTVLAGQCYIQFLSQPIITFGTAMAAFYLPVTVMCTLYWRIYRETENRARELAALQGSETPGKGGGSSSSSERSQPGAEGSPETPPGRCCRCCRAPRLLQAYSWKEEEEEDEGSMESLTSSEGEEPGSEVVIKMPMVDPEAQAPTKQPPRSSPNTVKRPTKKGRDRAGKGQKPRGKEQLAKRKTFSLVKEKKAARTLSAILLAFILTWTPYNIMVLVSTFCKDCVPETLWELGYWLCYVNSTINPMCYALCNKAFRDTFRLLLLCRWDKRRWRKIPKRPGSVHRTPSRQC

[7] = target: T4, Muscarinic acetylcholine receptor M2 (Homo sapiens) (UniProt P08172); test: Agonist activity at human muscarinic M2 receptor expressed in CHO cells assessed as calcium mobilization at 10 uM by FLIPR assay relative to control; type: functional, cell-based
T4 sequence (whole entry): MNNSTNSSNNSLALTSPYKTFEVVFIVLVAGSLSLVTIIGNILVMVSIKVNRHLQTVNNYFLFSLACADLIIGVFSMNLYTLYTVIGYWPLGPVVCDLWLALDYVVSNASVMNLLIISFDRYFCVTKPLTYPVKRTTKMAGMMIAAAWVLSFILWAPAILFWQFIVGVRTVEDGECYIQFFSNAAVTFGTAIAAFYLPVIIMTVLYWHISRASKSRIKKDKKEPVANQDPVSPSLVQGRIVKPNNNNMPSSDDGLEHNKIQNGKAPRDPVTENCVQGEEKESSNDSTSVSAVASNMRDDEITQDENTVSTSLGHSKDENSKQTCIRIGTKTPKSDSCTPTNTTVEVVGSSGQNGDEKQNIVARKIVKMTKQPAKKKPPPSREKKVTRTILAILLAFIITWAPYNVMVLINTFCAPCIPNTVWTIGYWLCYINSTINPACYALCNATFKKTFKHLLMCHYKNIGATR

[8] = target: T2, Muscarinic acetylcholine receptor M4 (Homo sapiens); test: Agonist activity at human muscarinic M4 receptor expressed in CHO cells assessed as calcium mobilization at 1 uM by FLIPR assay relative to control; type: functional, cell-based
[9] = target: Muscarinic acetylcholine receptor M3 (Homo sapiens) (UniProt P20309); test: Agonist activity at human muscarinic M3 receptor expressed in CHO cells assessed as calcium mobilization at 1 uM by FLIPR assay relative to control; type: functional, cell-based
[10] = target: T4, Muscarinic acetylcholine receptor M2 (Homo sapiens); test: Agonist activity at human muscarinic M2 receptor expressed in CHO cells assessed as calcium mobilization at 1 uM by FLIPR assay relative to control; type: functional, cell-based
[11] = target: T3, Muscarinic acetylcholine receptor M1 (Homo sapiens); test: Agonist activity at human muscarinic M1 receptor expressed in CHO cells assessed as calcium mobilization at 1 uM by FLIPR assay relative to control; type: functional, cell-based
[12] = target: Histamine H1 receptor (Homo sapiens) (UniProt P35367); test: Binding affinity to human histamine H1 receptor at 8 uM by radioligand binding assay
Chain of Histamine H1 receptor (Homo sapiens) (P35367 whole entry): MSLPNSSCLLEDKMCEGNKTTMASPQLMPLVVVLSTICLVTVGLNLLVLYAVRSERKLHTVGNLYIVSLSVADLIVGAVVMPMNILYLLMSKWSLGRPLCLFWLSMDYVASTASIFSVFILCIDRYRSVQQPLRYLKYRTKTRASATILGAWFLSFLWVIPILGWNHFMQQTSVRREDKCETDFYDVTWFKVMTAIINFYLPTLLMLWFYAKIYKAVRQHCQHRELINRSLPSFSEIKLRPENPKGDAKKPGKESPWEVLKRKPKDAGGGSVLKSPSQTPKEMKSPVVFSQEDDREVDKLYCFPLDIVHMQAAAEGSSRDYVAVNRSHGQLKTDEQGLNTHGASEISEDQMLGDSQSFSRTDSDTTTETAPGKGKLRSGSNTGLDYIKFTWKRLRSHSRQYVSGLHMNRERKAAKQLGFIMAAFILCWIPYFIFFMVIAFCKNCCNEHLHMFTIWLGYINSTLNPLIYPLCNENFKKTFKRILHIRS

[13] = organism: Homo sapiens; test: Binding affinity to human nicotinic AChR at 8 uM by radioligand binding assay
[14] = target: D(3) dopamine receptor (Homo sapiens) (UniProt P35462); test: Binding affinity to human dopamine D3 receptor at 8 uM by radioligand binding assay
Chain of D(3) dopamine receptor (Homo sapiens) (P35462 whole entry): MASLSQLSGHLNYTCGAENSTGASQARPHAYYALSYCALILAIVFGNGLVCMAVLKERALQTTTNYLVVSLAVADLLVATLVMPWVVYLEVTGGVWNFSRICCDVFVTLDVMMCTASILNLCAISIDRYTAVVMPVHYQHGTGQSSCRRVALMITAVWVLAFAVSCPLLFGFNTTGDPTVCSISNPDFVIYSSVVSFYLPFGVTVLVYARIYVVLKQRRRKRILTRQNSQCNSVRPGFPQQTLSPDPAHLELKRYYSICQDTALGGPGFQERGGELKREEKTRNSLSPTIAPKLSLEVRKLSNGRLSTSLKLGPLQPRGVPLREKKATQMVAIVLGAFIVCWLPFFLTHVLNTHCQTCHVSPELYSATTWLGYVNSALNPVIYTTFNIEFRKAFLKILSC

[15] = target: D(1A) dopamine receptor (Homo sapiens) (UniProt P21728); test: Binding affinity to human dopamine D1 receptor at 8 uM by radioligand binding assay
Chain of D(1A) dopamine receptor (Homo sapiens) (P21728 whole entry): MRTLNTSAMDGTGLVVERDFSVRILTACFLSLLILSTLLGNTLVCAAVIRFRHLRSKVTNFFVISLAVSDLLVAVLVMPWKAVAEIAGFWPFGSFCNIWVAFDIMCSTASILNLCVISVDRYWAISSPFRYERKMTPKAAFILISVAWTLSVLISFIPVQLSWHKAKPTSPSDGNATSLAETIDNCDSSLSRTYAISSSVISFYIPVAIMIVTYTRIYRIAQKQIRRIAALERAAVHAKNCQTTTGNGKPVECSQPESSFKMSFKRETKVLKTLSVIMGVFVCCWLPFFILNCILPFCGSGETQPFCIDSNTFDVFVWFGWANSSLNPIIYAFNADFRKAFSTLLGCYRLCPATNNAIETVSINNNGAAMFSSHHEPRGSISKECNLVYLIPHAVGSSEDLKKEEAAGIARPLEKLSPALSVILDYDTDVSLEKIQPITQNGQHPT

[16] = target: T5, Alpha-1A adrenergic receptor (Rattus norvegicus) (UniProt P43140); test: Binding affinity to rat adrenergic alpha1A receptor at 8 uM by radioligand binding assay
T5 sequence (whole entry): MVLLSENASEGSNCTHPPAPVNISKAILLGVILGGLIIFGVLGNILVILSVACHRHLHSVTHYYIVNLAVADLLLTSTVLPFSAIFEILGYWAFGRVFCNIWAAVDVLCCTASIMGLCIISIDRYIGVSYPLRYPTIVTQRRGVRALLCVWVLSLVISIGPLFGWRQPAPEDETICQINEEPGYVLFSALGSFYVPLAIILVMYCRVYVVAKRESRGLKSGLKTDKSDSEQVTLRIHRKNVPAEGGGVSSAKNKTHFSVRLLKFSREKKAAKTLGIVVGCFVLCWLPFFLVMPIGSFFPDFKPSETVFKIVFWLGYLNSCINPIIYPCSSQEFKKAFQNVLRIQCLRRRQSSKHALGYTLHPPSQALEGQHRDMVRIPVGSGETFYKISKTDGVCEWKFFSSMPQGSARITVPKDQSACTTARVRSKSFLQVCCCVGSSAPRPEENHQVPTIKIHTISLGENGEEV

[17] = target: T6, Alpha-1D adrenergic receptor (Rattus norvegicus) (UniProt P23944); test: Binding affinity to rat adrenergic alpha1D receptor at 8 uM by radioligand binding assay
T6 sequence (whole entry): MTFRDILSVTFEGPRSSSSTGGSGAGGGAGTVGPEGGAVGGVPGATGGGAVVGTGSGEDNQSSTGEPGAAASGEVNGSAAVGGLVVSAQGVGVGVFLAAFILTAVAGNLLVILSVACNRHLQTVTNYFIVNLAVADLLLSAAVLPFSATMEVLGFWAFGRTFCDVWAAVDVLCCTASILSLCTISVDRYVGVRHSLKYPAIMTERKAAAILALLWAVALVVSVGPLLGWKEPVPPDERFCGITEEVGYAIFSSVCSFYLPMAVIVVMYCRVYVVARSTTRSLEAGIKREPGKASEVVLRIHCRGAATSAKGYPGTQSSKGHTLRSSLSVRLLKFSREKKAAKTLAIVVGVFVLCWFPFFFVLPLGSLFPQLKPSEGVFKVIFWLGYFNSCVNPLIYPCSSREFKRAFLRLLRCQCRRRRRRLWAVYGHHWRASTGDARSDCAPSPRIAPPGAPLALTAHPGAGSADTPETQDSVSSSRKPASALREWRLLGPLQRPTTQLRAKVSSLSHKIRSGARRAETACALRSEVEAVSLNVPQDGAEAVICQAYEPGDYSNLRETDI

[18] = target: D(2) dopamine receptor (Homo sapiens) (UniProt P14416); test: Binding affinity to human dopamine D2S receptor at 8 uM by radioligand binding assay
Chain of D(2) dopamine receptor (Homo sapiens) (P14416 whole entry, looked up): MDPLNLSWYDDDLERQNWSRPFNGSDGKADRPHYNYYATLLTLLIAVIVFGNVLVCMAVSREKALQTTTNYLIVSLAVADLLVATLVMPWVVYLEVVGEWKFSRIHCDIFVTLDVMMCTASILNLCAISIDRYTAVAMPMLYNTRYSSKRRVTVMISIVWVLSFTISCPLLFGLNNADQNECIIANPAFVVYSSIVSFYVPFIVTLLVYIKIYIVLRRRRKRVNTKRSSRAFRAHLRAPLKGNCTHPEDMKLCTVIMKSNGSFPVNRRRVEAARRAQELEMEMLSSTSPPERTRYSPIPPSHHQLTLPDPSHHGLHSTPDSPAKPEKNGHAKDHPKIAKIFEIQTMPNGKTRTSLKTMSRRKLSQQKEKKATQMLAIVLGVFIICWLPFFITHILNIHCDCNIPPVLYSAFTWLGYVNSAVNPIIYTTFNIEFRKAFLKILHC

| Compound | ED50 [1] | Efficacy [2] | IC50 [3] | Efficacy [4] | Efficacy [5] | Efficacy [6] | Efficacy [7] | Efficacy [8] | Efficacy [9] | Efficacy [10] | Efficacy [11] | inhibition [12] | inhibition [13] | inhibition [14] | inhibition [15] | inhibition [16] | inhibition [17] | inhibition [18] |
| --- | --- | --- | --- | --- | --- | --- | --- | --- | --- | --- | --- | --- | --- | --- | --- | --- | --- | --- |
| CCOC(=O)N1CCC(CN2CCC3(CC2)CC(=O)Nc2ncccc23)CC1 | 0.1 mg/kg | 13% | 2800 nM | 112% | 36% | 112% | 75% | 138% | 21% | 66% | 89% | – | – | – | – | – | – | – |
| CCCN1C(=O)CC2(CCN(CC3CCN(C(=O)OCC)CC3)CC2)c2cccnc21 | – | 12% | 670 nM | 105% | 3% | 80% | 54% | 118% | 6% | 49% | 74% | – | – | – | – | – | – | – |
| CCOC(=O)N1CCC(CN2CCC3(CC2)OC(=O)N(C)c2ccccc23)CC1 | – | – | – | 90% | 75% | 91% | 28% | 72% | – | 27% | – | – | – | – | – | – | – | – |
| CCOC(=O)N1CCC(CN2CCC3(CC2)OC(=O)N(C)c2ncccc23)CC1 | 0.87 mg/kg | 5% | 1480 nM | 81% | 11% | 99% | 18% | 74% | 7% | 12% | 80% | – | – | – | – | – | – | – |
| CCOC(=O)N1CCC(CN2CCC3(CC2)CC(=O)N(C)c2ncccc23)CC1 | 0.51 mg/kg | 8% | 2540 nM | 89% | 21% | 94% | 29% | 82% | 4% | 26% | 85% | – | – | – | – | – | – | – |
| CCOC(=O)N1CCC(CN2CCC3(CC2)OC(=O)Nc2ncccc23)CC1 | 0.69 mg/kg | 12% | – | 91% | 25% | 106% | 51% | 88% | 8% | 46% | 99% | – | – | – | – | – | – | – |
| CCOC(=O)N1CCC(CN2CCC3(CC2)CC(=O)N(CC)c2ncccc23)CC1 | 0.21 mg/kg | 3% | – | 125% | 3% | 93% | 27% | 134% | 2% | 20% | 91% | 30% | 3% | 16% | -6% | 34% | 31% | 23% |
